Measurements as given in ChEMBL document CHEMBL5150066, “Synthesis of estrone selenocyanate Compounds, anti-tumor activity evaluation and Structure-activity relationship analysis” (Bioorg Med Chem, 2022).

How the values were obtained:
HeLa = experiment: Antiproliferative activity against human HeLa cells assessed as inhibition of cell growth incubated for 72 hrs by MTT assay; format: functional, cell-based
SK-OV-3 = experiment: Antiproliferative activity against human SK-OV-3 cells assessed as inhibition of cell growth incubated for 72 hrs by MTT assay; format: functional, cell-based; conditions: SK-OV-3, 72 h
MCF7 = experiment: Antiproliferative activity against human MCF7 cells assessed as inhibition of cell growth incubated for 72 hrs by MTT assay; format: functional, cell-based; conditions: MCF7, 72 h
HepG2 = experiment: Antiproliferative activity against human HepG2 cells assessed as inhibition of cell growth incubated for 72 hrs by MTT assay; format: functional, cell-based; conditions: HepG2, 72 h
[1] = Cytotoxicity against HEK293T cells assessed as inhibition of cell growth incubated for 72 hrs by MTT assay; format: toxicity, cell-based, HEK-293T; conditions: human
T47D = experiment: Antiproliferative activity against human T47D cells assessed as inhibition of cell growth incubated for 72 hrs by MTT assay; format: functional, cell-based
[2] = Selectivity index, ratio of IC50 for cytotoxicity against HEK293T cells to IC50 for antiproliferative activity against human HepG2 cells; format: toxicity, cell-based; conditions: HEK293T cells versus HepG2 cells, read-out: Ratio IC50
[3] = Potency index, ratio of test compound IC50 to 2-methoxyestradiol IC50 for cytotoxicity against human HEK293T cells assessed as inhibition of cell growth incubated for 72 hrs by MTT assay; format: toxicity, cell-based, HEK-293T; conditions: read-out: Ratio IC50

| SMILES | IC50 (HeLa) [µM] | IC50 (SK-OV-3) [µM] | IC50 (MCF7) [µM] | IC50 (HepG2) [µM] | IC50 at 72 h [1] [µM] | IC50 (T47D) [µM] | selectivity ratio [2] | selectivity ratio at 72 h [3] |
| --- | --- | --- | --- | --- | --- | --- | --- | --- |
| C[C@]12CC[C@@H]3c4ccc(OCC[Se]C#N)cc4CC[C@H]3[C@@H]1CCC2=O | 20.2 | 60.3 | 52.3 | > 100 | 51.1 |  |  |  |
| C[C@]12CC[C@@H]3c4cc(NC(=O)c5ccc(C[Se]C#N)cc5)c(O)cc4CC[C@H]3[C@@H]1CCC2=O | 26.8 | 49.5 | 39.2 | 68.9 | 27.2 | 37.4 |  |  |
| C[C@]12CC[C@@H]3c4cc(NC(=O)CCCCCCCCC[Se]C#N)c(O)cc4CC[C@H]3[C@@H]1CCC2=O | 13.7 | 14.4 | 9.3 | 31 | 17.2 | 24.6 |  |  |
| C[C@]12CC[C@@H]3c4ccc(OCCC[Se]C#N)cc4CC[C@H]3[C@@H]1CCC2=O | 18.2 | 54.6 | 48.1 | > 100 | 43.9 | > 100 |  |  |
| COc1cc2c(cc1O)CC[C@@H]1[C@@H]2CC[C@]2(C)[C@@H](O)CC[C@@H]12 [2-METHOXYESTRADIOL] | 8.6 | 16.5 | > 70 | 2.3 | 4.6 | 25.2 |  |  |
| C[C@]12CC[C@@H]3c4ccc(O)cc4CC[C@H]3[C@@H]1CCC2NC(=O)C[Se]C#N (stereo partly specified) | 70.4 | 30.5 | 73.4 | 70.4 | 25.4 | 73.4 |  |  |
| C[C@]12CC[C@@H]3c4cc(NC(=O)C[Se]C#N)c(O)cc4CC[C@H]3[C@@H]1CCC2=O | 9.4 | 2.6 | 16.6 | 1 | 15.4 | 22.8 | 15 | 3 |
| C[C@]12CC[C@@H]3c4ccc(OCCCC[Se]C#N)cc4CC[C@H]3[C@@H]1CCC2=O | 14 | 49.7 | 41.1 | > 100 | 42.8 | 75.7 |  |  |
| COc1ccc2c(c1)CC[C@@H]1[C@@H]2CC[C@]2(C)/C(=N/OC(=O)c3ccc(C[Se]C#N)cc3)CC[C@@H]12 | 21 | 69 | 3.9 | 80.4 | 23.2 | 24.2 |  |  |
| COc1ccc2c(c1)CC[C@@H]1[C@@H]2CC[C@]2(C)C(NC(=O)C[Se]C#N)CC[C@@H]12 (stereo partly specified) | 16.2 | 30.6 | 56.1 | 10.5 | 15 | 75.9 |  |  |
| COc1ccc2c(c1)CC[C@@H]1[C@@H]2CC[C@]2(C)/C(=N/OC(=O)C[Se]C#N)CC[C@@H]12 | 26.3 | 53.4 | 18.8 | 62.5 | 25.2 | 24.2 |  |  |
| COc1ccc2c(c1)CC[C@@H]1[C@@H]2CC[C@]2(C)C(OC(=O)c3ccc(C[Se]C#N)cc3)CC[C@@H]12 (stereo partly specified) | 47.5 | 56.3 | 55.5 | 35.9 | 29.7 | > 100 |  |  |
| C[C@]12CC[C@H](O)CC1=CC[C@@H]1[C@@H]2CC[C@]2(C)C(c3cccnc3)=CC[C@@H]12 [ABIRATERONE] | 16.9 | 59.5 | 38.2 | 59.8 | > 100 | 34.7 |  |  |
| C[C@]12CC[C@@H]3c4ccc(OCCCCCCCCCCCC[Se]C#N)cc4CC[C@H]3[C@@H]1CCC2=O | 18.2 | 46.6 | 27.5 | > 100 | 16.5 | 19.7 |  |  |
| C[C@]12CC[C@@H]3c4ccc(O)cc4CC[C@H]3[C@@H]1CCC2NC(=O)c1ccc(C[Se]C#N)cc1 (stereo partly specified) | 13.7 | 27.7 | 17.2 | 16.1 | 13.4 | 25.1 |  |  |
| C[C@]12CC[C@@H]3c4ccc(OCCCCCCCC[Se]C#N)cc4CC[C@H]3[C@@H]1CCC2=O | 5.6 | 20.1 | 8 | 42.5 | 8.9 | 59.2 |  |  |
| C[C@]12CC[C@@H]3c4cc(NC(=O)CCCC[Se]C#N)c(O)cc4CC[C@H]3[C@@H]1CCC2=O | 13.7 | 15.6 | 17.3 | 11 | 18.2 | 21.8 |  |  |
| COc1ccc2c(c1)CC[C@@H]1[C@@H]2CC[C@]2(C)C(NC(=O)c3ccc(C[Se]C#N)cc3)CC[C@@H]12 (stereo partly specified) | 9.6 | 22.4 | 15.8 | 13.8 | 24.6 | 40.8 |  |  |
| COc1ccc2c(c1)CC[C@@H]1[C@@H]2CC[C@]2(C)C(OC(=O)C[Se]C#N)CC[C@@H]12 (stereo partly specified) | 56.8 | 52.4 | 88.3 | 61.1 | 45.2 | 41.5 |  |  |
| C[C@]12CC[C@@H]3c4cc(N)c(O)cc4CC[C@H]3[C@@H]1CCC2=O | > 70 | > 70 | > 70 | 56.3 | 36.4 | 50.5 |  |  |
